Legend:
human orexin-2 receptor = human orexin-2 receptor (Homo sapiens (Human), UniProt O43614); test: hOX2R FLIPR Ca2+ flux assay; assay type: cell-based; conditions: CHO cells expressing the receptor; agonist 70 pM Ala-6,12 human orexin-A
Experimental: In a typical experiment the OX1 and OX2 receptor antagonistic activity of the compounds of the present invention was determined in accordance with the following experimental method. For intracellular calcium measurements, Chinese hamster ovary (CHO) cells expressing the rat orexin-1 receptor or the human orexin-2 receptor, are grown in Iscove's modified DMEM containing 2 mM L-glutamine, […], 1% hypoxanthine-thymidine supplement, 100 U/ml penicillin, 100 μg/ml streptomycin and 10% heat-inactivated fetal calf serum (FCS). The cells are seeded at 20,000 cells/well into Becton-Dickinson black 384-well clear bottom sterile plates coated with poly-D-lysine. All reagents were from GIBCO-Invitrogen Corp. The seeded plates are incubated overnight at 37° C. and 5% CO2. Ala-6,12 human orexin-A as the agonist is prepared as a 1 mM stock solution in 1% bovine serum albumin (BSA) and diluted in assay buffer (HBSS containing 20 mM HEPES, 0.1% BSA and 2.5 mM probenecid, pH7.4) for use in the assay at a final concentration of 70 pM. Test compounds are prepared as 10 mM stock solution in DMSO, then diluted in 384-well plates, first in DMSO, then assay buffer. On the day of the assay, cells are washed 3 times with 100 μl assay buffer and then incubated for 60 min (37° C., 5% CO2) in 60 μl assay buffer containing 1 μM Fluo-4AM ester, 0.02% pluronic acid, and 1% BSA. The dye loading solution is then aspirated and cells are washed 3 times with 100 μl assay buffer. 30 μl of that same buffer is left in each well. Within the Fluorescent Imaging Plate Reader (FLIPR, Molecular Devices), test compounds are added to the plate in a volume of 25 μl, incubated for 5 min and finally 25 μl of agonist is added. Fluorescence is measured for each well at 1 second intervals for 5 minutes and the height of each fluorescence peak is compared to the height of the fluorescence peak induced by 70 pM Ala-6,12 orexin-A with buffer in place of antagonist. […] Alternatively, compound potency can be assessed by a radioligand binding assay (described in Bergman et. al. Bioorg. Med. Chem. Lett. 2008, 18, 1425-1430) in which the inhibition constant (Ki) is determined in membranes prepared from CHO cells expressing either the OX1 or OX2 receptor. The intrinsic orexin receptor antagonist activity of a compound which may be used in the present invention may be determined by these assays.

hOX1R = hOX1R (Homo sapiens, UniProt O43613); test: hOX1R FLIPR Ca2+ flux assay; assay type: cell-based; conditions: CHO cells expressing the receptor; agonist 70 pM Ala-6,12 human orexin-A

Chain of human orexin-2 receptor (O43614 whole entry): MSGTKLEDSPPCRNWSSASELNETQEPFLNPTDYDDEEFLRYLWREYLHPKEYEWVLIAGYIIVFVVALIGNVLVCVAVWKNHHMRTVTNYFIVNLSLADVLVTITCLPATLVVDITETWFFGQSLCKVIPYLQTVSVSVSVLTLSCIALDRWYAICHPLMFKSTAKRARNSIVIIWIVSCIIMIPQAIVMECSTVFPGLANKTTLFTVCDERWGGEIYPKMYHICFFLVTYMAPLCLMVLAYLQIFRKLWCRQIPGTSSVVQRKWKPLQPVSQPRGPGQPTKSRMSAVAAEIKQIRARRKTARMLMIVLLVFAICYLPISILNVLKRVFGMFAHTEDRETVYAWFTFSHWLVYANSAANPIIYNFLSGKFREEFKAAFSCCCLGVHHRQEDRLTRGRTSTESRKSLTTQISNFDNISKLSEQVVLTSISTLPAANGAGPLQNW

COC(=O)c1nc(N2CC[C@H]3CCN(C(=O)c4ccccc4-n4nccn4)C[C@H]32)sc1C (stereo in doubt) [Example B12, methyl 2-((3aR, 7aS)-6-(2-(2H-1,2,3-triazol-2-yl)benzoyl)octahydro-1H-pyrrolo[2,3-c]pyridin-1-yl)-5-methylthiazole-4-carboxylate]
IC50 (human orexin-2 receptor): 1.34 µM | IC50 (hOX1R): 10 µM

N#Cc1ccnc(N2CC[C@H]3CCN(C(=O)c4ccccc4-n4ncnn4)C[C@H]32)c1 (stereo in doubt) [Example D2, 2-((3aS, 7aS)-6-(2-(2H-tetrazol-2-yl)benzoyl)octahydro-1H-pyrrolo[2,3-c]pyridin-1-yl)isonicotinonitrile]
IC50 (human orexin-2 receptor): 0.11 µM | IC50 (hOX1R): 10 µM

N#Cc1ccnc(N2CC[C@H]3CCN(C(=O)c4ccccc4OC(F)(F)F)C[C@H]32)c1 (stereo in doubt) [Example D3, 2-((3aS, 7aS)-6-(2-(trifluoromethoxy)benzoyl)octahydro-1H-pyrrolo[2,3-c]pyridin-1-yl)isonicotinonitrile]
IC50 (human orexin-2 receptor): 0.0791 µM | IC50 (hOX1R): 10 µM

N#Cc1ccnc(N2CC[C@H]3CCN(C(=O)c4nccnc4-c4ccccn4)C[C@H]32)c1 (stereo in doubt) [Example D4, 2-((3aS, 7aS)-6-(3-(pyridin-2-yl)pyrazine-2-carbonyl)octahydro-1H-pyrrolo[2,3-c]pyridin-1-yl)isonicotinonitrile]
IC50 (human orexin-2 receptor): 0.328 µM | IC50 (hOX1R): ≥ 10 µM

N#Cc1ccnc(N2CC[C@H]3CCN(C(=O)c4cccnc4-n4cccn4)C[C@H]32)c1 (stereo in doubt) [Example D5, 2-((3aS, 7aS)-6-(2-(1H-pyrazol-1-yl)nicotinoyl)octahydro-1H-pyrrolo[2,3-c]pyridin-1-yl)isonicotinonitrile]
IC50 (human orexin-2 receptor): 0.037 µM | IC50 (hOX1R): 10 µM

N#Cc1ccnc(N2CC[C@H]3CCN(C(=O)c4nccnc4-n4cccn4)C[C@H]32)c1 (stereo in doubt) [Example D6, 2-((3aS, 7aS)-6-(3-(1H-pyrazol-1-yl)pyrazine-2-carbonyl)octahydro-1H-pyrrolo[2,3-c]pyridin-1-yl)isonicotinonitrile]
IC50 (human orexin-2 receptor): 0.117 µM | IC50 (hOX1R): 10 µM

N#Cc1ccnc(N2CC[C@H]3CCN(C(=O)c4ccccc4-n4nccn4)C[C@H]32)c1 [Example A1, 2-((3aS,7aS)-6-(2-(2H-1,2,3-triazol-2-yl)benzoyl)octahydro-1H-pyrrolo[2,3-c]pyridin-1-yl)isonicotinonitrile]
IC50 (human orexin-2 receptor): 0.0405 µM | IC50 (hOX1R): 10 µM

Cc1cc(C)nc(N2CC[C@@H]3CCN(C(=O)c4ccccc4-n4nccn4)C[C@@H]32)n1 [Example A2, (2-(2H-1,2,3-triazol-2-yl)phenyl)((3aR, 7aR)-1-(4,6-dimethylpyrimidin-2-yl)hyexahydro-1H-pyrrolo[2,3-c]pyridin-6(2H)-yl)methanone]
IC50 (human orexin-2 receptor): 0.163 µM | IC50 (hOX1R): 10 µM

N#Cc1ccnc(N2CC[C@@H]3CCN(C(=O)c4ccccc4-n4nccn4)C[C@@H]32)n1 [Example A3, 2-((3aR, 7aR)-6-(2-(2H-1,2,3-triazol-2-yl)benzoyl)octahydro-1H-pyrrolo[2,3-c]pyridin-1-yl)pyrimidine-4-carbonitrile]
IC50 (human orexin-2 receptor): 0.943 µM | IC50 (hOX1R): 10 µM

Cc1cc(C#N)nc(N2CC[C@@H]3CCN(C(=O)c4ccccc4-n4nccn4)C[C@@H]32)n1 [Example A4, 2-((3aR, 7aR)-6-(2-(2H-1,2,3-triazol-2-yl)benzoyl)octahydro-1H-pyrrolo[2,3-c]pyridin-1-yl)-6-methylpyrimidine-4-carbonitrile]
IC50 (human orexin-2 receptor): 10 µM | IC50 (hOX1R): 10 µM

COc1cc(OC)nc(N2CC[C@@H]3CCN(C(=O)c4ccccc4-n4nccn4)C[C@@H]32)n1 [Example A5, (2-(2H-1,2,3-triazol-2-yl)phenyl)((3aR, 7aR)-1-(4,6-dimethoxypyrimidin-2-yl)hexahydro-1H-pyrrolo[2,3-c]pyridin-6(2H)-yl)methanone]
IC50 (human orexin-2 receptor): 2.1 µM | IC50 (hOX1R): 10 µM

O=C(c1ccccc1-n1nccn1)N1CC[C@H]2CCN(c3ncccn3)[C@H]2C1 [Example A6]
IC50 (human orexin-2 receptor): 6.08 µM | IC50 (hOX1R): 10 µM

COC(=O)c1ccnc(N2CC[C@@H]3CCN(C(=O)c4ccccc4-n4nccn4)C[C@@H]32)c1 [Example A8]
IC50 (human orexin-2 receptor): ≥ 10 µM | IC50 (hOX1R): ≥ 10 µM

COc1cc(N2CC[C@@H]3CCN(C(=O)c4ccccc4-n4nccn4)C[C@@H]32)ncc1C#N [Example A9]
IC50 (human orexin-2 receptor): 2.64 µM | IC50 (hOX1R): ≥ 10 µM

O=C(c1ccccc1-n1nccn1)N1CC[C@H]2CCN(c3ccc(-n4ccnc4)nn3)[C@H]2C1 [Example A10, (3aR, 7aR)-(1-(6-(1H-imidazol-1-yl)pyridazin-3-yl)hexahydro-1H-pyrrolo[2,3-c]pyridin-6(2H)-yl)(2-(2H-1,2,3-triazol-2-yl)phenyl)methanone]
IC50 (human orexin-2 receptor): 10 µM | IC50 (hOX1R): 10 µM

Cc1ccc(C)n1-c1ccc(N2CC[C@@H]3CCN(C(=O)c4ccccc4-n4nccn4)C[C@@H]32)nn1 [Example A11, (2-(2H-1,2,3-triazol-2-yl)phenyl)((3aR, 7aR)-1-(6-(2,5-dimethyl-1H-pyrrol-1-yl)pyridazin-3-yl)hexahydro-1H-pyrrolo[2,3-c]pyridin-6(2H)-yl)methanone]
IC50 (human orexin-2 receptor): 10 µM | IC50 (hOX1R): 10 µM

COC(=O)c1ccc(N2CC[C@@H]3CCN(C(=O)c4ccccc4-n4nccn4)C[C@@H]32)nn1 [Example A12, methyl 6-((3aR, 7aR)-6-(2-(2H-1,2,3-triazol-2-yl)benzoyl)octahydro-1H-pyrrolo[2,3-c]pyridin-1-yl)pyridazine-3-carboxylate]
IC50 (human orexin-2 receptor): ≥ 10 µM | IC50 (hOX1R): ≥ 10 µM

O=C(c1ccccc1-n1nccn1)N1CC[C@H]2CCN(c3ncnc4scnc34)[C@H]2C1 [Example A13, (2-(2H-1,2,3-triazol-2-yl)phenyl)((3aR, 7aR)-1-(thiazolo[5,4-d]pyrimidin-7-yl)hexahydro-1H-pyrrolo[2,3-c]pyridin-6(2H)-yl)methanone]
IC50 (human orexin-2 receptor): ≥ 10 µM | IC50 (hOX1R): ≥ 10 µM

N#Cc1cc(Cl)ncc1N1CC[C@@H]2CCN(C(=O)c3ccccc3-n3nccn3)C[C@@H]21 [Example A14, 5-((3aR, 7aR)-6-(2-(2H-1,2,3-triazol-2-yl)benzoyl)octahydro-1H-pyrrolo[2,3-c]pyridin-1-yl)-2-chloroisonicotinonitrile]
IC50 (human orexin-2 receptor): ≥ 10 µM | IC50 (hOX1R): ≥ 10 µM

Cc1c(C#N)ccnc1N1CC[C@@H]2CCN(C(=O)c3ccccc3-n3nccn3)C[C@@H]21 [Example A15, 2-(cis-6-(2-(2H-1,2,3-triazol-2-yl)benzoyl)ocathydro-1H-pyrrolo[2,3-c]pyridin-1-yl)-3-methylisonicotinonitrile]
IC50 (human orexin-2 receptor): 0.0848 µM | IC50 (hOX1R): ≥ 10 µM

CN(C)c1ccnc(N2CC[C@@H]3CCN(C(=O)c4ccccc4-n4nccn4)C[C@@H]32)c1C#N [Example A17, 4-(dimethylamino)-2-[(3aR, 7aR)-6-{[2-(2H-1,2,3-triazol-2-yl)phenyl]carbonyl}octahydro-1H-pyrrolo[2,3-c]pyridin-1-yl]pyridine-3-carbonitrile]
IC50 (human orexin-2 receptor): 0.0698 µM | IC50 (hOX1R): ≥ 10 µM

CN(C)c1cc(Cl)nc(N2CC[C@@H]3CCN(C(=O)c4ccccc4-n4nccn4)C[C@@H]32)n1 [Example A18, 6-chloro-N,N-dimethyl-2-[(3aR, 7aR)-6-{[2-(2H-1,2,3-triazol-2-yl)phenyl]carbonyl}octahydro-1H-pyrrolo[2,3-c]pyridin-1-yl]pyrimidin-4-amine]
IC50 (human orexin-2 receptor): 0.13 µM | IC50 (hOX1R): 3.24 µM

N#Cc1ccnc(N2CC[C@@H]3CCN(C(=O)c4ccccc4-n4nccn4)C[C@@H]32)c1Cl [Example A19, 3-chloro-2-[(3aR, 7aR)-6-{[2-(2H-1,2,3-triazol-2-yl)phenyl]carbonyl}octahydro-1H-pyrrolo[2,3-c]pyridin-1-yl]pyridine-4-carbonitrile]
IC50 (human orexin-2 receptor): 0.0955 µM | IC50 (hOX1R): ≥ 10 µM

O=C(c1ccccc1-n1nccn1)N1CC[C@H]2CCN(c3cc(C(F)(F)F)ccn3)[C@H]2C1 [Example A20, (3aR, 7aR)-6-{[2-(2H-1,2,3-triazol-2-yl)phenyl]carbonyl}-1-[4-(trifluoromethyl)pyridin-2-yl]octahydro-1H-pyrrolo[2,3-c]pyridine]
IC50 (human orexin-2 receptor): 0.0665 µM | IC50 (hOX1R): 3.96 µM

Cc1ccnc(N2CC[C@@H]3CCN(C(=O)c4ccccc4-n4nccn4)C[C@@H]32)c1 [Example B1, (2-(2H-1,2,3-triazol-2-yl)phenyl)((3aR,7aR)-1-(4-methylpyridin-2-yl)hexahydro-1H-pyrrolo[2,3-c]pyridin-6(2H)-yl)methanone]
IC50 (human orexin-2 receptor): 0.902 µM | IC50 (hOX1R): ≥ 10 µM

From US9938276B2, “6,5-bicyclic octahydropyrrolopyridine orexin receptor antagonists” (Merck Sharp & Dohme Corp., priority 2014, dated 2018)
